Source: paper PMC11345841, “Exploring 2-Sulfonylpyrimidine Warheads as Acrylamide Surrogates for Targeted Covalent Inhibition: A BTK Story” (Journal of Medicinal Chemistry, 2024)
Like-named read-outs stand apart in the source and are kept apart here.

Experiments:
Experiment in all cases: KINOMEscan ScanTK
Format in all cases: binding
DDR2 = biological target: T1, DDR2 (Homo sapiens, UniProt Q16832)
T1 construct: purchased Eurofins DiscoverX KINOMEscan (scanTK)
T1 sequence (Q16832 22-855): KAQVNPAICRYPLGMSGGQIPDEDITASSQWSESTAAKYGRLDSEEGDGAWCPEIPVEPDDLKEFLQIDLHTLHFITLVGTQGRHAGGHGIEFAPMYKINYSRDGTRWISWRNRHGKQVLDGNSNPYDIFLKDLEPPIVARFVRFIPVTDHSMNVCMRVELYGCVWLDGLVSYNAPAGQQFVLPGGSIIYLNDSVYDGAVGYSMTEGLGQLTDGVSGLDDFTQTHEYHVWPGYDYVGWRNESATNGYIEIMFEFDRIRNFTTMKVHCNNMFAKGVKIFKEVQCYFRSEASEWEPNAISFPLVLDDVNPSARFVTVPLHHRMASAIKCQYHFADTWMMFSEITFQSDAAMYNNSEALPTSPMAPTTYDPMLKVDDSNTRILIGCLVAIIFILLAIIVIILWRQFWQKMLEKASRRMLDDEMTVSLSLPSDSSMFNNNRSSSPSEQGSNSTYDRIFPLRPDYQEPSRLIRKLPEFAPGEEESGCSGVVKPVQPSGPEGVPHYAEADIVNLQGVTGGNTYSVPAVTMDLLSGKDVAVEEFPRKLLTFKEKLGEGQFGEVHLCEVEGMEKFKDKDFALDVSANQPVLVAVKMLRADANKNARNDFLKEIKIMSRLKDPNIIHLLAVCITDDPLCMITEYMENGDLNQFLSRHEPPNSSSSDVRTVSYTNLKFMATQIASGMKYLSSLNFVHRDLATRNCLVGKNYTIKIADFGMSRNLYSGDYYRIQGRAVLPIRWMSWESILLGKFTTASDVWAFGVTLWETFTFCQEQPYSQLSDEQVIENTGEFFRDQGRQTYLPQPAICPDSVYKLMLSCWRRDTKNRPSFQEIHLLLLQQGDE

TNK1 = biological target: T2, TNK1 (Homo sapiens, UniProt Q13470)
T2 construct: purchased Eurofins DiscoverX KINOMEscan (scanTK)
T2 sequence (Q13470 1-666): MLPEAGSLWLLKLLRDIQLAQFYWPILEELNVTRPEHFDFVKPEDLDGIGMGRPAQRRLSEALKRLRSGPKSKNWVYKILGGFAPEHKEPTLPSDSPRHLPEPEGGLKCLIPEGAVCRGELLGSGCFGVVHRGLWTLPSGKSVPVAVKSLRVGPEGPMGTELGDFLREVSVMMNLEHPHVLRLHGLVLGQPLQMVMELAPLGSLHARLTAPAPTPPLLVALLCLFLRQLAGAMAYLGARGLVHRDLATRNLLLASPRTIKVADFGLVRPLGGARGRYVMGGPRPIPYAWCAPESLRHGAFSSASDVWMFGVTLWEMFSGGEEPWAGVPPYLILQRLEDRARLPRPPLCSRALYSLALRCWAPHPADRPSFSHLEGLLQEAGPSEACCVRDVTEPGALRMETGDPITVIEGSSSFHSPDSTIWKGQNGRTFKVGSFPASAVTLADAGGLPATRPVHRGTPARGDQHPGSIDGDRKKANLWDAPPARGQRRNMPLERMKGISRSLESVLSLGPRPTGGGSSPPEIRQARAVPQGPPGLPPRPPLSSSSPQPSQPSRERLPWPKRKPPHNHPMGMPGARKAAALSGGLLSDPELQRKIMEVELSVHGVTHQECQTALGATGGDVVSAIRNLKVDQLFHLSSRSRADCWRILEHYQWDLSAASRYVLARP

MUSK = biological target: T3, MUSK (Homo sapiens, UniProt O15146)
T3 construct: purchased Eurofins DiscoverX KINOMEscan (scanTK)
T3 sequence (O15146 24-869): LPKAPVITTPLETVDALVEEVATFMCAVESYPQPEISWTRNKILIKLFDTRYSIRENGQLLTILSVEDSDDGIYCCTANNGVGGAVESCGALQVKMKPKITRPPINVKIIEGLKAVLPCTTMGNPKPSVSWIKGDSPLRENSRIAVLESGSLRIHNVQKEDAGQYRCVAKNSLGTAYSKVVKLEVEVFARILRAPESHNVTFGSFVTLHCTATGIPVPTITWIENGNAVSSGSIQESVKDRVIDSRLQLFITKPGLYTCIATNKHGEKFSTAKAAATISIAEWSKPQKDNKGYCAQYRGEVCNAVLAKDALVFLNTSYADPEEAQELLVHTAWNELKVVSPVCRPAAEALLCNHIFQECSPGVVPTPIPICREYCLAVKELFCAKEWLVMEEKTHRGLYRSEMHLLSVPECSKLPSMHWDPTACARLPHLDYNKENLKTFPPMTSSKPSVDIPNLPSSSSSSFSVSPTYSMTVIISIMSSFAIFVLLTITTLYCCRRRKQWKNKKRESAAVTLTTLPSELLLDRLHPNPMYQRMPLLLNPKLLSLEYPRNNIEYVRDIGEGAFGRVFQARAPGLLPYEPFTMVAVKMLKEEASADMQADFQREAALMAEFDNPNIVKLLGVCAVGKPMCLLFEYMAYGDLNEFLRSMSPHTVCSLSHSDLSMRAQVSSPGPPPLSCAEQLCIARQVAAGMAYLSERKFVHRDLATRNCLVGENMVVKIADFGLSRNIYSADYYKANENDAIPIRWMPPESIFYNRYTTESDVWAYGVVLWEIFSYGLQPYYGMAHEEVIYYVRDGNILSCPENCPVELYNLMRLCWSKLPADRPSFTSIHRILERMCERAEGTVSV

[1] = biological target: T4, TYK2(JH1domain-catalytic) (Homo sapiens, UniProt P29597)
T4 construct: TYK2(JH1domain-catalytic); purchased Eurofins DiscoverX KINOMEscan (scanTK)
T4 sequence (P29597 888-1187 limits assumed): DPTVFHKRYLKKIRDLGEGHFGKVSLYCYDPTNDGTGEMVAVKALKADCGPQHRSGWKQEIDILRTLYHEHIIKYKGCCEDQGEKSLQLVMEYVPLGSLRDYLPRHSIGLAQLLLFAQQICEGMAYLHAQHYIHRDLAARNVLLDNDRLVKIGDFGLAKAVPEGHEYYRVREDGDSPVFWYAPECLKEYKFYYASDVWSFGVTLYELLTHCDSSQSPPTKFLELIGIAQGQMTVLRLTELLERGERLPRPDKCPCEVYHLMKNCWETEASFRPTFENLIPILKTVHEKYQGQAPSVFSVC

SRC = biological target: T5, SRC (Homo sapiens, UniProt P12931)
T5 construct: purchased Eurofins DiscoverX KINOMEscan (scanTK)

KIT(V559D,V654A) = biological target: T6, KIT(V559D,V654A) (Homo sapiens, UniProt P10721, V559D/V654A)
T6 construct: purchased Eurofins DiscoverX KINOMEscan (scanTK)

[2] = @1000nM, DDR2, read-out: %Control
[3] = DDR2, read-out: %Control @1000nM

T6 sequence (P10721 26-976 V559D/V654A): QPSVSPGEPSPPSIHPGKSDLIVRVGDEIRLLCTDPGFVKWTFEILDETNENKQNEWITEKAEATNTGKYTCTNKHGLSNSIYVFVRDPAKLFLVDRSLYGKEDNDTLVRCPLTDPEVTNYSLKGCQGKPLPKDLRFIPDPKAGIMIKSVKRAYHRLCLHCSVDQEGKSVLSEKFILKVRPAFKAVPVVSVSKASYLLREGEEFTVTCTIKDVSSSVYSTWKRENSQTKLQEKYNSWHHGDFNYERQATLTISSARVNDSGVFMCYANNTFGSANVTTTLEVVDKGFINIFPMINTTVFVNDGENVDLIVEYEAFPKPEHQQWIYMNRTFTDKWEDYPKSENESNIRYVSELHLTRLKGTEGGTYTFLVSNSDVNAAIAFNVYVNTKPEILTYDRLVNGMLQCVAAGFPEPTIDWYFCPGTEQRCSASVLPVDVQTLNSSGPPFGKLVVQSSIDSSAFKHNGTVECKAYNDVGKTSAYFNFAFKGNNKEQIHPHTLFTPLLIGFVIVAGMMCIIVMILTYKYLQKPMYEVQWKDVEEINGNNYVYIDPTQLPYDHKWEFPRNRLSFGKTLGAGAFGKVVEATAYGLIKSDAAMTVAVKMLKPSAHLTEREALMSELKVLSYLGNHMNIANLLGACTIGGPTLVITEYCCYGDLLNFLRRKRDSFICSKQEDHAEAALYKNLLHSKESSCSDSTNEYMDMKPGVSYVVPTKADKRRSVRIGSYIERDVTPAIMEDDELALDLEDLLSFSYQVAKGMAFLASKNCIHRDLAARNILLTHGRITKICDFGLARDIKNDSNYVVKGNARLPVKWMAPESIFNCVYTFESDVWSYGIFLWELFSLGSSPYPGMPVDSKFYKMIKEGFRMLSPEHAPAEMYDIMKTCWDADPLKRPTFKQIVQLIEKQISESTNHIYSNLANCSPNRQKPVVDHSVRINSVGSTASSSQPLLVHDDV
T5 sequence (P12931 whole entry): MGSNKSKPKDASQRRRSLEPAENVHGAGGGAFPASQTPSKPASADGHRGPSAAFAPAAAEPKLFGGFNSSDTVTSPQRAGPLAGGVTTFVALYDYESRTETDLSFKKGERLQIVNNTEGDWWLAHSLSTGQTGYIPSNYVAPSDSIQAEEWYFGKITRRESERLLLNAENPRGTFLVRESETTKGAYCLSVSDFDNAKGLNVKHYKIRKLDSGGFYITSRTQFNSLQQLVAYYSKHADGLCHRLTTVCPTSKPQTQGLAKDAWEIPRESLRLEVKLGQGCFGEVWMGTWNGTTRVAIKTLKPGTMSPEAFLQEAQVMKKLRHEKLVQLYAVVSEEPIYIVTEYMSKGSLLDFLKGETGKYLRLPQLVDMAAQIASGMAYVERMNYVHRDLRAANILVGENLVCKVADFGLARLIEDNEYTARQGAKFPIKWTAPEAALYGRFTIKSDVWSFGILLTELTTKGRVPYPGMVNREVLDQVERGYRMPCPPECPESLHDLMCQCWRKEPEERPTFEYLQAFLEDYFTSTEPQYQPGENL

Row | SMILES | remaining binding at 1 µM (DDR2; read-out: %Control) | remaining binding at 1 µM (DDR2; read-out: %Control @1000nM) | remaining binding at 1 µM (TNK1; @1000nM, read-out: %Control) | remaining binding at 1 µM (TNK1; read-out: %Control @1000nM) | remaining binding at 1 µM (MUSK; @1000nM, read-out: %Control) | remaining binding at 1 µM (MUSK; read-out: %Control @1000nM) | difference in %Control from reference compound Ib at 1 µM (DDR2; @1000nM, DDR2) | remaining binding at 1 µM (DDR2; [2]) | remaining binding at 1 µM (DDR2; [3]) | remaining binding at 1 µM ([1]; @1000nM, read-out: %Control) | remaining binding at 1 µM ([1]; read-out: %Control @1000nM) | remaining binding at 1 µM (SRC; @1000nM, read-out: %Control) | remaining binding at 1 µM (SRC; read-out: %Control @1000nM) | remaining binding at 1 µM (KIT(V559D,V654A); @1000nM, read-out: %Control) | remaining binding at 1 µM (KIT(V559D,V654A); read-out: %Control @1000nM)
1 | C=CC(=O)N1CCC[C@@H](n2nc(-c3ccc(Oc4ccccc4)cc3)c3c(N)ncnc32)C1 [Compound 1g, Ibrutinib, reference compound] | 97% | 97% | 93% | 93% | 95% | 95% |  |  |  |  |  |  |  |  | 
2 | Cc1cnc(S(C)(=O)=O)nc1N1CCCC(n2nc(-c3ccc(Oc4ccccc4)cc3)c3c(N)ncnc32)C1 (stereo not shown) [Compound 8a, 1-(1-(5-Methyl-2-(methylsulfonyl)pyrimidin-4-yl)piperidin-3-yl)-3-(4-phenoxyphenyl)-1H-pyrazolo[3,4-d]pyrimidin-4-amine] |  |  | 91% | 91% | 88% | 88% | -5% | 92% | 92% | 89% | 89% | 17% | 17% | 90% | 90%
3 | COC(=O)c1cnc(S(C)(=O)=O)nc1N1CCCC(n2nc(-c3ccc(Oc4ccccc4)cc3)c3c(N)ncnc32)C1 (stereo not shown) [Compound 8b, Methyl 4-(3-(4-Amino-3-(4-phenoxyphenyl)-1H-pyrazolo[3,4-d]pyrimidin-1-yl)piperidin-1-yl)-2-(methylsulfonyl)pyrimidine-5-carboxylate] |  |  | 88% | 88% | 92% | 92% | -6% | 91% | 91% | 95% | 95% | 60% | 60% | 86% | 86%
4 | CCOC(=O)c1cnc(S(C)(=O)=O)nc1N1CCC[C@@H](n2nc(-c3ccc(Oc4ccccc4)cc3)c3c(N)ncnc32)C1 [Compound 8c, Ethyl (R)-4-(3-(4-Amino-3-(4-phenoxyphenyl)-1H-pyrazolo[3,4-d]pyrimidin-1-yl)piperidin-1-yl)-2-(methylsulfonyl)pyrimidine-5-carboxylate] |  |  | 81% | 81% | 73% | 73% | -22% | 75% | 75% | 100% | 100% | 66% | 66% | 97% | 97%
5 | CNC(=O)c1cnc(S(C)(=O)=O)nc1N1CCCC(n2nc(-c3ccc(Oc4ccccc4)cc3)c3c(N)ncnc32)C1 (stereo not shown) [Compound 8d, 4-(3-(4-Amino-3-(4-phenoxyphenyl)-1H-pyrazolo[3,4-d]pyrimidin-1-yl)piperidin-1-yl)-N-methyl-2-(methylsulfonyl)pyrimidine-5-carboxamide] |  |  | 97% | 97% | 98% | 98% | -15% | 82% | 82% | 100% | 100% | 43% | 43% | 94% | 94%
